pIC50: −log10 of the molar value.
Tests used:
Assay in all cases: Inhibition test on activity of DYRK family, mobility shift assay (MSA)
Format in all cases: biochemical
DYRK1B = molecular target: T1, DYRK1B (Homo sapiens, UniProt Q9Y463); details: ATP 200 μM; FITC-labeled DYRKtide peptide substrate; room temperature 1 hour; read-out: Inhibitory Activity DYRK1B (IC50 class)
T1 construct: purchased Carna Biosciences, Inc. 04-131
Procedure: (§1) The kinase activity was measured by mobility shift assay (MSA) method using QuickScout Screening Assist™ MSA (commercially available kit manufactured by Carna Biosciences, Inc.). The substrate of the kinase reaction used was an FITC-labeled DYRKtide peptide included in the kit. An assay buffer [20 mM HEPES, 0.01% Triton X-100™, 2 mM dithiothreitol, pH 7.5] was used to create a substrate mixture solution with a substrate (4 μM), MgCl2 (20 mM), and ATP (DYRK1A: 100 μM; DYRKIB: 200 μM; DYRK2:40 μM; and DYRK3:20 μM). In addition, kinases (DYRK1A: manufactured by Carna Biosciences, Inc., Cat. No. 04-130; DYRK1B: manufactured by Carna Biosciences, Inc., Cat. No. 04-131; DYRK2; manufactured by Carna Biosciences, Inc., Cat. No. 04-132; and DYRK3; manufactured by Carna Biosciences, Inc., Cat. No. 04-133) were diluted with the assay buffer to prepare enzyme solutions (DYRK1A: 0.2 ng/μL; DYRK1B: 0.08 ng/μL; DYRK2: 0.04 ng/μL; and DYRK3:0.25 ng/μL). The 10 mM solution of the test compound in DMSO was further diluted with DMSO to 10 levels of the concentration (0.00003 mM, 0.0001 mM, 0.0003 mM, 0.001 mM, 0.003 mM, 0.01 mM, 0.03 mM, 0.1 mM, 0.3 mM, and 1 mM), each of which was subjected to 25-fold dilution with the assay buffer to obtain a drug solution (4% DMSO solution). 5 μL of the drug solution or a control solution (4% DMSO-assay buffer), 5 μL of the substrate mixture solution, and 10 μL of the enzyme solution were mixed in the wells of a polypropylene 384-well plate and allowed to react at room temperature for 1 hour, and then the reaction was quenched by adding 60 μL of the termination buffer included in the kit. Subsequently, the quantities of the substrates(S) and the phosphorylated substrate (P) in the reaction solution were measured using LabChip EZ Reader II system (manufactured by Caliper Life Sciences) according to the protocol of the assay kit.
(§2) The heights of the peaks of the “substrate” and the “phosphorylated substrate” were expressed as S and P, respectively, and a blank containing the assay buffer instead of the enzyme solution was also measured.
(§3) The inhibition rate (%) of the test compound was calculated according to the following equation: […]
(§4) wherein, A, B, and C represent P/(P+S) of the blank well, P/(P+S) of the control solution well, and P/(P+S) of the compound-containing well, respectively.
(§5) The IC50 value was calculated via a regression analysis of the inhibition rate and the test compound concentration (logarithmic value).

DYRK2 = molecular target: T2, DYRK2 (Homo sapiens, UniProt Q92630); details: ATP 40 μM; FITC-labeled DYRKtide peptide substrate; room temperature 1 hour; read-out: Inhibitory Activity DYRK2 (IC50 class)
T2 construct: purchased Carna Biosciences, Inc. 04-132
T2 sequence (Q92630 1-601): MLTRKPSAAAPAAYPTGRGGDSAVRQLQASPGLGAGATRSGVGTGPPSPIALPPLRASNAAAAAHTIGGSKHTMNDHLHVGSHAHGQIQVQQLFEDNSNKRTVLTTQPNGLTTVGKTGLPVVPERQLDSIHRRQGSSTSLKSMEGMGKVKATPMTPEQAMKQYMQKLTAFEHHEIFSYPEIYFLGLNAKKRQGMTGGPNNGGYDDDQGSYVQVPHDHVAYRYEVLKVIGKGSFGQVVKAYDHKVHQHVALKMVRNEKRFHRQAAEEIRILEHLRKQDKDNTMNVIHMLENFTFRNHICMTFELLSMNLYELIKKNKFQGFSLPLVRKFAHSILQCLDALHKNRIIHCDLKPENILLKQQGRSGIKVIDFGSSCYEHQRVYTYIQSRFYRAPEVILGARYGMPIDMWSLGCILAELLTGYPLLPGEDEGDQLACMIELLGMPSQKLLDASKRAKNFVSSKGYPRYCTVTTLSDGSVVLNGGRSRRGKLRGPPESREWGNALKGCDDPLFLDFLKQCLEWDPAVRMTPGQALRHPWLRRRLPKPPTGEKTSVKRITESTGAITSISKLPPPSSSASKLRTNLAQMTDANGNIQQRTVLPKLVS
Procedure: as §1, §2, §3, §4, §5

DYRK1A = molecular target: T3, DYRK1A (Homo sapiens, UniProt Q13627); details: ATP 100 μM; FITC-labeled DYRKtide peptide substrate; room temperature 1 hour; read-out: Inhibitory Activity DYRK1A (IC50 class)
T3 construct: purchased Carna Biosciences, Inc. 04-130
Procedure: as §1, §2, §3, §4, §5

DYRK3 = molecular target: T4, DYRK3 (Homo sapiens, UniProt O43781); details: ATP 20 μM; FITC-labeled DYRKtide peptide substrate; room temperature 1 hour; read-out: Inhibitory Activity DYRK3 (IC50 class)
T4 construct: purchased Carna Biosciences, Inc. 04-133
T4 sequence (O43781 1-588): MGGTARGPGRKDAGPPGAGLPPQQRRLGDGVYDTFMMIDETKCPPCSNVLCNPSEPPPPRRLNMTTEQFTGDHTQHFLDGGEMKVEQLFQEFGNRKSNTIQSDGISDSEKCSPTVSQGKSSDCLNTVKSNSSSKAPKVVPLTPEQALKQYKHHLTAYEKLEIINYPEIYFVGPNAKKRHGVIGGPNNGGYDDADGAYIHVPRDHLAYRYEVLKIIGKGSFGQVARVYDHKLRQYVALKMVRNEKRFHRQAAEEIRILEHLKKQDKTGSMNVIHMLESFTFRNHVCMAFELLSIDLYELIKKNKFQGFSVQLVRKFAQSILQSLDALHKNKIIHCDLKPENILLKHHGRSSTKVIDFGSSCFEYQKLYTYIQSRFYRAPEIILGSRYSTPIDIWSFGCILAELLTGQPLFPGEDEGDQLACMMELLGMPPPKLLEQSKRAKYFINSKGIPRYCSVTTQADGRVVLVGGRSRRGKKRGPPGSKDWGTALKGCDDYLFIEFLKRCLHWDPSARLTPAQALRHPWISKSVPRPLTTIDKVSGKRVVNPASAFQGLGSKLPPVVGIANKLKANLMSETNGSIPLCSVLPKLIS
Procedure: as §1, §2, §3, §4, §5

T1 sequence (Q9Y463 whole entry): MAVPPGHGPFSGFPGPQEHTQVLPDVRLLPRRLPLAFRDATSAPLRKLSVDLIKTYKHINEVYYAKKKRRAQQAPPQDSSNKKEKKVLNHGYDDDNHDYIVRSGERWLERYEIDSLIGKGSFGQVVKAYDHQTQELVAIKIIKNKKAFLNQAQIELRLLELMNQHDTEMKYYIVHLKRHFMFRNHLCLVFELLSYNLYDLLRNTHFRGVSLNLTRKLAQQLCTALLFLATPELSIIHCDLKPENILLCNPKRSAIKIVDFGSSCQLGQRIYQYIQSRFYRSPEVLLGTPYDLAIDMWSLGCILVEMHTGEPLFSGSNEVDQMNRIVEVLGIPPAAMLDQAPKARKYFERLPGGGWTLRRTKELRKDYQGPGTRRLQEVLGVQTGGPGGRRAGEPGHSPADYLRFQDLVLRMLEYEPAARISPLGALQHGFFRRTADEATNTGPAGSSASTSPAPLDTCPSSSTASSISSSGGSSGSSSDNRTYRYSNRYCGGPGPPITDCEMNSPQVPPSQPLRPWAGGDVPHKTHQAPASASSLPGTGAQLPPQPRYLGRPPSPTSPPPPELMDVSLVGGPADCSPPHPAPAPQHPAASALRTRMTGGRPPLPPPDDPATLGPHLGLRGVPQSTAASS

| Compound | pIC50 (DYRK1B) | pIC50 (DYRK2) | pIC50 (DYRK1A) | pIC50 (DYRK3) |
| --- | --- | --- | --- | --- |
| CC#CC1CCNC(=O)N1c1nc2c3c(ccc2s1)OCCO3 (single isomer, unassigned) [Example 5, 1-(7,8-dihydro-[1,4]dioxyno[2′,3′:5,6]benzo[1,2-d]thiazol-2-yl)-6-(prop-1-yn-1-yl)tetrahydropyrimidin-2(1H)-one] | > 8.00 | 6.00 to 7.00 | > 8.00 | 6.00 to 7.00 |
| CC#C[C@H]1[C@H](C)CNC(=O)N1c1nc2c3c(ccc2s1)OCC3 (stereo in doubt) [Example 13, (5R*,6R*)-1-(7,8-dihydrobenzofuro[4,5-d]thiazol-2-yl)-5-methyl-6-(prop-1-yn-1-yl)tetrahydropyrimidin-2(1H)-one] | < 6.00 | < 6.00 |  | < 6.00 |
| CC#CC1C[C@H](C)NC(=O)N1c1nc2c3c(ccc2s1)OCC3 (stereo in doubt) [Example 16, (4S,6S)-1-(7,8-dihydrobenzofuro[4,5-d]thiazol-2-yl)-4-methyl-6-(prop-1-yn-1-yl)tetrahydropyrimidin-2(1H)-one] | < 6.00 | < 6.00 | < 6.00 | < 6.00 |
| CC#CC1C[C@H](C)NC(=O)N1c1nc2c3c(ccc2s1)OCC3 (stereo in doubt) [Example 17, (4S,6R)-1-(7,8-dihydrobenzofuro[4,5-d]thiazol-2-yl)-4-methyl-6-(prop-1-yn-1-yl)tetrahydropyrimidin-2(1H)-one] | 7.00 to 8.00 | < 6.00 | 7.00 to 8.00 | < 6.00 |
| CC#C[C@H]1C[C@@H](C)NC(=O)N1c1nc2c3c(ccc2s1)OCC3 [Example 14, (4R,6R)-1-(7,8-dihydrobenzofuro[4,5-d]thiazol-2-yl)-4-methyl-6-(prop-1-yn-1-yl)tetrahydropyrimidin-2(1H)-one] | < 6.00 | < 6.00 | < 6.00 | < 6.00 |
| CC#C[C@@H]1C[C@@H](C)NC(=O)N1c1nc2c3c(ccc2s1)OCC3 [Example 15, (4R,6S)-1-(7,8-dihydrobenzofuro[4,5-d]thiazol-2-yl)-4-methyl-6-(prop-1-yn-1-yl)tetrahydropyrimidin-2(1H)-one] | 7.00 to 8.00 | < 6.00 | 7.00 to 8.00 | < 6.00 |

— patent US20250326767A1, “NOVEL BENZOTHIAZOLE DERIVATIVES” (CARNA BIOSCIENCES, INC., priority 2021, published 2025)
